The values below come from patent US20090048233A1, “Enhancing the Tolerability of a Seratonin Antagonist and a NSRI, a SNRI or a RIMA by Using Them in Combination” (CYPRESS BIOSCIENCES, INC., priority 2007, published 2009).

Data set [1] concerns normal, health subjects. In words: Example 5 tolerability study, mirtazapine and duloxetine. It counts as in vivo, human. The following applies: 6 weeks, 15 mg mirtazapine or 30 mg duloxetine.
The test system of data set [2] is normal, health subjects. Briefly: Example 1 tolerability study, mirtazapine and milnacipran or duloxetine. The following applies: 6 weeks, 15 mg mirtazapine or 100 mg milnacipran or duloxetine. As for the experimental part: (§1) The subjects receive 2 capsules per day, one in the morning and one at bedtime. […] All medications are administered in an over-encapsulated format that ensures blinding of study participants, staff and investigators. All subjects are scheduled to receive a total of 6 weeks of therapy, and are required to return to the clinics after 1, 2, 4 and 6 weeks of therapy. Patients are required to complete paper self-assessments, electronic diary assessments, computer based cognitive testing, as well as vital signs and weight assessments at the clinic visits.

The test system of data set [3] is cancer patients with pain. The following applies: open trial in cancer pain, 15 and 30 mg; cited from earlier work.
Data set [4] relates to normal, health subjects. In words: Example 4 tolerability study, mirtazapine and milnacipran. The following applies: 6 weeks, 15 mg mirtazapine or 50 mg milnacipran. Here is the method: as §1
Data set [5] has as its system patients with fibromyalgia. The following applies: open study; cited from earlier work.
The subject of data set [6] is normal, health subjects. In words: Example 1A tolerability study, mirtazapine and 1S,2R-enriched milnacipran. The following applies: 6 weeks, milnacipran with 1S,2R:1R,2S ratio about 55:45 to 90:10. As for the experimental part:
as §1

Data set [7] concerns chronic tension type headache. The following applies: controlled trial; cited from earlier work.
For data set [8], the system named is reuptake of noradrenaline and serotonin. The following applies: in vivo; cited from earlier work.
For data set [9] the following is noted: controlled studies; cited from earlier work.

Turning to `CN1CCN2c3ncccc3Cc3ccccc3C2C1` (stereo not drawn) [mirtazapine, 1,2,3,4,10,14b-hexahydro-2-methylpyrazino [2,1-a]pyrido[2,3-c]benzazepine], the “side effects of the drug alone” value with normal, health subjects [1] is “does cause weight gain, sedation, and cognitive deficits”; in the data set with normal, health subjects [2] it was “does cause weight gain, sedation, and cognitive deficits”; with normal, health subjects [4], “does cause weight gain, sedation, and cognitive deficits”; with normal, health subjects [6], “does cause weight gain, sedation, and cognitive deficits”. The depression levels entry in data set [3] is “significant improvements were obtained in depression levels”. In addition, in [3], the pain intensity entry is on record as “pain intensity was not statistically improved”. Further, in data set [5], the “activity in fibromyalgia pain” value is “has some activity in fibromyalgia pain”. Also, in data set [7], the “efficacy in chronic tension type headache” value is “suggested efficacy in chronic tension type headache”.
For the compound `CCN(CC)C(=O)[C@@]1(c2ccccc2)C[C@H]1CN` (racemic) [milnacipran, cis-(±)-2-(aminomethyl)-N,N-diethyl-1-phenylcyclopropanecarboxamide], the “side effects of the drug alone” value in the data set on normal, health subjects [2] is “causes insomnia, nausea/vomiting, and weight loss”; with normal, health subjects [4], “causes insomnia, nausea/vomiting, and weight loss”; with normal, health subjects [6], “causes insomnia, nausea/vomiting, and weight loss”. The “potency for inhibiting the reuptake of both noradrenaline and serotonin” value in data set [8] is listed as “nearly equal potency”.
`CNCC[C@H](Oc1cccc2ccccc12)c1cccs1` [duloxetine, (+)-(S)—N-methyl-3-(1-naphthyloxy)-3-(thiophen-2-yl)-propan-1-amine]: the “side effects of the drug alone” value with normal, health subjects [1] was “causes insomnia, nausea/vomiting, and weight loss”; with normal, health subjects [2] it was “causes insomnia, nausea/vomiting, and weight loss”; in the data set with normal, health subjects [4], “causes insomnia, nausea/vomiting, and weight loss”; in the data set on normal, health subjects [6], “causes insomnia, nausea/vomiting, and weight loss”.
On to `CN(C)CCC=C1c2ccccc2CCc2ccccc21` [amitriptyline], for which, in [9], the “appetite increase reported, share of patients” value is 6% and the “weight gain of greater than or equal to 7% of body weight reported, share of patients” value is recorded as 5.9%.
